Like-named read-outs stand apart in the source and are kept apart here.
Columns and labels:
[1] = Single-dose oral toxicity; type: in vivo, Beagle dogs
Experimental: Suzhou Zelgen Biopharmaceuticals Co., Ltd. Jaktinib Hydrochloride Tablets Chemical Drug Class 1 New Drug
During the trial, the general conditions of the […]
measured once on days 3, 7, and 13, respectively. After 14 days of observation, the […]
and blood biochemistry tests. All rats were euthanized for gross anatomy. […]
after drug administration. […] During the […]
biochemistry tests were performed on days 2 and 15. After 14 days of observation, all dogs were anesthetized and euthanized for gross anatomy. Blood samples were […]
administration in ZG0128 dose groups. LC-MS/MS was used to measure the […]
AUClast, Cmax, Tmax, and other toxicokinetic parameters.

[2] = 28-day oral gavage toxicity; type: in vivo, Wistar rats; conditions: for drug exposure: 24.4 mg/kg
Experimental: Suzhou Zelgen Biopharmaceuticals Co., Ltd. Jaktinib Hydrochloride Tablets Chemical Drug Class 1 New Drug […]
active ingredient ZG0163). The control group contained 36 Wistar rats (6 rats were used for the toxicokinetic test) and each group of ZG0128 contained 54 rats (24 rats in each group were used for the toxicokinetic test), with half males and half females. The rats in each group were given the control substance (0.5% CMC-Na solution) or the corresponding concentrations of ZG0128 in a 10 mL/kg volume by oral gavage once a […]
The day of the first dose […]
is defined as day 1 of the dosing period, while the day of anatomy after the last dose is defined as day 1 of the recovery period. During the dosing period and the recovery […]
the body weight and food intake of the rats were measured twice a week during the […]
recovery periods, respectively. In the 219.6 mg/kg group, 12 (3 females, 9 males) and […]
and recovery periods, respectively. The rats in each group were anesthetized to collect blood samples for hematology and blood biochemistry tests. After the rats were […]
histopathological examination of tissue samples were performed. For the rats in […]
ZG0128 groups used for toxicokinetic test, their blood samples were collected before the first dose and last dose as well as 0.5, 1, 2, 3, 4, 6, 10, and 24 h after the first dose and last dose. For the rats in the control group, their blood samples were collected before the first dose and last dose and 3 h after the first dose and last dose, respectively.
LC-MS/MS was used to measure the concentrations of the original drug ZG0163 and its amide hydrolysis metabolite ZG0245 in the blood samples collected at various time […]
tissues, spleen, thymus, and bone marrow), digestive system (gastrointestinal tract, pancreas, and submandibular gland), reproduction system, kidney, and bones. The drug caused abnormal indicators related to liver, renal, and pancreatic functions, as well as decreased lymphocytes and platelets. At the dose of 73.2 mg/kg, some of the above lesions could be observed, but the severity of the lesions was mild. After drug discontinuation, the lesions in the submandibular gland, testis, and epididymis were still visible in 73.2 and 219.6 mg/kg groups, and the severity of the lesions was not […]
disappeared after drug discontinuation.
In the dose range of 24.4 to 219.6 mg/kg, the exposure to ZG0128 and its metabolite ZG0245 in female and male rats increased in proportion to the dose, and no significant gender difference was observed. After 28 days of consecutive administration, […]
both female and male rats of each dose group.
After the Wistar rats were given 24.4, 73.2, and 219.6 mg/kg of ZG0128 by oral […]
mg/kg. At this dose, the drug exposure dose in female rats on the first day of dosing […]
10124 h•ng/mL in male rats. On day 28 of dosing, the drug exposure dose in female

[3] = From the text: Chemical Drug Class 1 New Drug
A Toxicity Test in Beagle Dogs Administered ZG0128 by Oral Gavage for 28 […]
The study consisted of 4 groups, including the control group and dose groups of […]
active ingredient ZG0163). Each group contained 10 dogs, with 5 male dogs and 5 female dogs. The dogs in each group were orally administered with control (empty capsule) or the corresponding doses of ZG0128 once a day for 28 consecutive days, followed by 28 days for recovery after drug discontinuation. The day of the first dose is defined as day 1 of the dosing period. During the dosing period and the recovery period, the general conditions of the dogs in different groups were observed every day.
The body weight and food intake of the dogs were measured twice a week during the dosing period and once a week during the recovery period, respectively. At 2-3 h after the dosing on day 14, and 2-3 h after the last dose as well as on the last day of the recovery period. The lead II electrocardiogram, blood pressure and body temperature (anal temperature) were measured. One ophthalmic examination and routine urinalysis were arranged at the end of dosing and recovery periods, respectively. Hematology and blood biochemistry tests were performed on day 15 and the end of the dosing and recovery periods, respectively.
In all other groups, 6 and 4 dogs
(male:female=1:1) were dissected at the end of dosing and recovery periods, respectively. After the dogs were euthanized, bone marrow smear, gross anatomy, organ weight measurement and histopathological examination of tissue samples were performed. Blood samples were collected from dogs before the first/last dose and 0.5, 1, 2, 4, 6, 10, 24 h after drug administration in ZG0128 dose groups. Blood samples were collected before the first/last dose and 2 h after the first/last dose, respectively.
LC-MS/MS was used to measure the concentration of the original drug ZG0163 and […]
the amide hydrolysis metabolite ZG0245 in blood samples at various time points and to calculate AUClast, Cmax, Tmax, and other toxicokinetic parameters.

[4] = PK, 7-day intragastric dosing; type: in vivo, rats; conditions: for AUC0-t / AUC0-∞ / Cmax / Tmax / t1/2: 30.5 mg/kg (multiple dose)
Experimental: After 7 consecutive days of continuous intragastric administration (30.5 mg/kg once a day) of ZG0128 in rats, the plasma concentration reached a steady state on day […]
values obtained after the single-dose administration, respectively. The Cmax and AUC0-t of the metabolite ZG0245 were 1.19 and 1.52 times the values obtained after the single-dose administration, respectively. […]
consecutive days of administration, there was no significant accumulation of ZG0163 and the metabolite ZG0245 in rats. The pharmacokinetic parameters obtained after […]
Table 12. Pharmacokinetic parameters of ZG0163 in rats given different doses of ZG0128 via oral gavage (n = 6, male:female=1:1).
Dosage Gender Tmax Cmax AUC0-t AUC0-∞ MRT t1/2

Compound: Cl.Cl.O.[2H]C1([2H])COCC([2H])([2H])N1c1ccc(Nc2nccc(-c3ccc(C(=O)NCC#N)cc3)n2)cc1 [ZG0128, Jaktinib Dihydrochloride Monohydrate]
- maximum tolerated dose (MTD) ([1]; single oral dose): 1220 mg/kg
- highest non-severely toxic dose (HNSTD) ([2]; 28 consecutive days): 24.4 mg/kg
- dose causing dying or death ([2]; 28 days): 219.6 mg/kg
- NOAEL ([3]; 28 days): 18.3 mg/kg
- dose causing death ([3]; 28 days): 195.2 mg/kg
- highest non-severely toxic dose (HNSTD) ([3]; dog, in vivo): 61 mg/kg
- day on which steady state was reached ([4]; 30.5 mg/kg once a day): 5 days

Compound: Jaktinib
- AUC0-t ([1]; single oral 366 mg/kg ZG0128): 10215 ± 10044 ng/mL
- AUC0-t ([1]; single oral 1220 mg/kg ZG0128): 19752 ± 9998 ng/mL
- drug exposure ([2]; female rats, day 28): 51893 ± 20625 ng·h/mL
- drug exposure ([2]; female rats, first day): 60887 ± 21040 ng·h/mL
- drug exposure ([2]; male rats, day 28): 46522 ± 17149 ng·h/mL
- drug exposure ([2]; male rats, first day): 50799 ± 10124 ng·h/mL
- NOAEL ([3]; 28 days): 18.3 mg/kg
- NOAEL ([3]; Beagle dogs, oral, 28 days): 18.3 mg/kg/day
- AUC0-t ([4]; Female): 67600 ± 27600 ng·h/mL
- AUC0-∞ ([4]; Female): 67800 ± 27800 ng·h/mL
- Cmax ([4]; Female): 11000 ± 4220 ng/mL
- Tmax ([4]; Female): 1.0 h
- t1/2 ([4]; Female): 1.81 ± 1.55 h
- AUC0-t ([4]; Male): 35700 ± 13500 ng·h/mL
- AUC0-∞ ([4]; Male): 36000 ± 13800 ng·h/mL
- Cmax ([4]; Male): 6340 ± 1230 ng/mL
- Tmax ([4]; Male): 1.0 (1.0-2.0) h
- t1/2 ([4]; Male): 2.15 ± 0.62 h
- AUC0-t ([4]; Overall): 51700 ± 26100 ng·h/mL
- AUC0-∞ ([4]; Overall): 51900 ± 26200 ng·h/mL
- Cmax ([4]; Overall): 8670 ± 3770 ng/mL
- Tmax ([4]; Overall): 1.0 (1.0-6.0) h
- t1/2 ([4]; Overall): 1.98 ± 1.07 h

From PMC7849180 (Frontiers in Pharmacology, 2020)
